Tests used:
[1] = system: human U87-MG glioblastoma tumor xenografts in the flank; experiment: in vivo; details: mouse
Method: (§1) Tumor xenografts were obtained in mice flanks as described previously. Six-week-old female immunodeficient (nu/nu) NMRI mice, weighing 20–25 g, were obtained from Janvier Laboratories (Le Genest Saint Isle, France) and housed in ventilated cages including filter tops with an ad libitum access to food and water. Two xenograft tumors were induced in all mice through subcutaneous flank injections of 2.10^6 of human U87-MG cells. Tumor growth was assessed twice weekly, according to tumor volume (in mm^3) calculated with the formula d2 × D/2, where d and D represent the shortest and longest diameters, respectively, calculated in millimeter with a caliper (decrescent PRC, EDVC, France).
(§2) At the end of the 2nd PET recording, the animals were sacrificed by inhalation of 5% of isoflurane followed by cervical dislocation. Tumors were subsequently surgically removed for further histopathological analysis.
(§3) List-mode acquisitions of 120 min durations were initiated a few seconds prior to tracer injection, and the acquired PET data were subsequently reconstructed in 27 consecutive frames (i.e., 5 frames of 120-s duration followed by 22 frames of 5-min duration) using the ordered-subsets expectation maximization 3D algorithm (OSEM3D, 4 iterations, 16 subsets, zoom 1) together with scatter and attenuation corrections based on transmission source measurement. The final voxel size was 0.8 × 0.8 × 0.9 mm^3.
(§4) Tumor and of various organ activities were determined through SUV mean values within 3D regions of interests (ROI), which were drawn with a dedicated software (Inveon Research Workplace 4.1, Siemens®, Knoxville, USA) on the fusion images encompassing the entire 120-min recording period. Spheroid ROIs were placed inside the liver, brain, and kidney regions with the ROI limits approximating the organ limits as close as possible. Tumor and heart ROIs were obtained with isocontour ROIs and threshold limits of 50 and 80%, respectively, of the maximal voxel value.

[2] = system: human U87-MG glioblastoma tumor xenografts in the brain; experiment: in vivo; details: rat
Description: (§5) Briefly, 8-week-old athymic male nude rats (180–220 g), (Hsd: RH-Foxn1rnu; Envigo, Gannat, France), were anesthetized with a mixture of air and 1.5–2% isoflurane and were placed in a Kopf stereotactic frame (900 M Kopf Instruments, Tujunga, CA). After a scalp incision, a burr hole was drilled 0.5 mm anterior and 2.7 mm lateral to bregma and a skull anchor (Patent N° 11 55596) was affixed.

[3] = system: human U87-MG glioblastoma tumor xenografts in the flank; details: mouse, iv
Method: Animals were sacrificed by cervical dislocation 60 min after injection. Various tissues (tumor, liver, heart, brain, and kidney) were dissected, weighed, and counted in a calibrated gamma counter (Wizard, PerkinElmer, France). The results were expressed as percentages of injected dose and per gram of tissue (% ID/g).

in vivo [4] = details: female, NMRI nu/nu, mouse, iv, 6 MBq, total radioactivity
Method: as §1, §2, §3, §4

in vivo [5] = details: male, athymic nude (Hsd: RH-Foxn1rnu), rat, total radioactivity
Description: as §5

| course of tumor uptake with time [1] | tumor-to-normal brain ratio (PET imaging) [1] | mean tumor activity (SUVmean) ([1]; iv) | tumor activity relative to contralateral normal brain [2] | tumor-to-normal brain ratio (ex vivo biodistribution data, gamma counter) [3] | Structure (SMILES) | route of tracer clearance [1] | SUV at 1 h (in vivo [4]) | SUV (in vivo [5]; SUVmean_ contralateral normal brain) | SUV (in vivo [5]; SUVmean_Tumor) |
| --- | --- | --- | --- | --- | --- | --- | --- | --- | --- |
| progressive enhancement | 1.5 ± 0.37 | 1.19 ± 0.33 | 1.62 ± 0.15 | 0.61 ± 0.2 %ID/g | OC[C@H]1OC(O)[C@H](F)[C@@H](O)[C@@H]1O (stereo partly shown) [^18F-FDG, ^18F-fluorodeoxyglucose] | primary renal route of tracer clearance |  |  |  |
|  |  |  |  |  | N=C(N)NCCC[C@@H]1NC(=O)[C@H](CCCCNC(=O)CCC(C(=O)O)N2CCN(CC(=O)O)CCN(CC(=O)O)CC2)NC(=O)[C@@H](Cc2ccc(O)cc2)NC(=O)[C@H](CC(=O)O)NC(=O)CNC1=O (stereo partly shown) [^68Ga-NODAGA-RGD, metal not drawn] | primary renal route of tracer clearance | 0.23 ± 0.04 SUV | 0.1 SUV | 0.5 SUV |

Source: publication PMC6003898 (EJNMMI Research, 2018)
